Measurements: patent US20250114367A1, “METHOD OF TREATING HAIR LOSS DISORDERS” (Sun Pharmaceutical Industries, Inc., priority 2023, published 2025)

What was measured:
[1] = tested on: adult subjects with moderate to severe AA; test: Phase III trial: Hair Satisfaction Patient Reported Outcome (SPRO); type: in vivo, human; set-up: key to SPRO responders, treatment difference: Common Risk Difference (Mantel-Haenszel): difference in proportion of responders (satisfied or very satisfied); conditions: for SPRO Responders: No / SPRO Responders: Yes ('Very satisfied' or 'Satisfied') / SPRO Responses: 1 = Very Satisfied / SPRO Responses: 2 = Satisfied / SPRO Responses: 3 = Neither Satisfied Nor Dissatisfied / SPRO Responses: 4 = Dissatisfied / SPRO Responses: 5 = Very Dissatisfied / percentage of subjects with a ≥2 point change from baseline in SPRO / proportion of SPRO responders (very satisfied or satisfied) / percentage of SPRO responders: non-missing data; for SPRO responders, treatment difference: Common Risk Difference (Mantel-Haenszel): MI with MAR assumption
Description: The SPRO is a single-item questionnaire answered by the subject and designed to measure how satisfied Alopecia Areata subjects are with their hair at the time of the assessment. Subjects answer questions on a scale of 1 to 5, representing “Very satisfied” to “Very dissatisfied.” Satisfaction categories 1-5 of the scale were defined as follows: 1=“Very Satisfied”; 2=“Satisfied”; 3=“Neither Satisfied nor Dissatisfied”; 4=Dissatisfied”; and 5=“Very Dissatisfied”.
The results of the SPRO was analyzed in three different ways: 1) the percentage of responders, 2) the change from baseline, and 3) the percentage of subjects achieving a ≥2.0 point change from baseline.
A Phase III trial was conducted to assess the efficacy and safety of CTP-543 in adult subjects with moderate to severe AA. Approximately 440 adult male and female subjects 18 to 65 years of age, inclusive, with moderate to severe AA participated in the study. Subjects with definitive diagnosis of AA, and at least 50% hair loss, as defined by a SALT score ≥50, who met all of the inclusion criteria and none of the exclusion criteria participated in the study.
The Screening Period lasted up to 28 days prior to initiation of study drug. […] Randomization was stratified by scalp hair loss into 1 of the following 2 categories: 1) partial scalp hair loss (SALT ≥50 and <95), 2) complete or near complete scalp hair loss (SALT ≥95).
The key secondary efficacy endpoints were the percentage of responders (defined as “satisfied” or “very satisfied”) on the Hair Satisfaction Patient Reported Outcome (SPRO) scale at Week 24, 20, 16, 12, and 8.
Additional secondary efficacy endpoints included the following: • Relative change in SALT scores from baseline at Weeks 4, 8, 12, 16, 20, and 24. • Percentage of responders (defined as “much improved” or “very much improved”) using the Clinical Global Impression of Improvement (CGI-I) at Weeks 12, 16, 20, and 24. • Percentage of responders (defined as “much improved” or “very much improved”) using the Patient Global Impression of Improvement (PGI-I) at Weeks 12, 16, 20, and 24. • Change from baseline in the Clinical Global Impression of Severity (CGI-S) at Weeks 12, 16, 20, and 24. • Change from baseline in the Patient Global Impression of Severity (PGI-S) at Weeks 12, 16, 20, and 24. • Change from baseline on the Brigham Eyebrow Tool for Alopecia (BETA) score at Weeks 12 and 24. • Change from baseline on the Brigham Eyelash Tool for Alopecia (BELA) score at Weeks 12 and 24. • Percentage of subjects achieving at least a 75% relative reduction in SALT score from baseline at Weeks 12 and 24. • Percentage of subjects achieving at least a 90% relative reduction in SALT score from baseline at Weeks 12 and 24. • Percentage of responders (defined as “satisfied” or “very satisfied”) on the SPRO scale at Weeks 12, 16, and 20. • Change from baseline in the SPRO scale at Weeks 12, 16, 20, and 24. • Percentage of subjects achieving a ≥2-point change from baseline in the SPRO scale at Weeks 12, 16, 20, and 24. • Change from baseline on the individual items of the Hair Quality Patient Reported Outcome (QPRO) scale at Weeks 12, 16, 20, and 24. • Change from baseline in the depression scale of the Hospital Anxiety and Depression Scale (HADS) at Week 24. • Change from baseline in the anxiety scale of the HADS at Week 24. • Percentage of subjects achieving an absolute SALT score of ≤20 at Week 4. • Percentage of subjects achieving an absolute SALT score of ≤10 at Week 24 […]

[2] = tested on: subjects with AA; test: Open-label extension (OLE) studies: safety
Description: Two separate OLE trials were conducted in North America (CP543.5001) and the European Union (CP543.5002). […] Both OLE trials were similarly designed, except: Trial CP543.5001 (North America) participants have the opportunity to continue in the trial for a maximum of 276 weeks; and Trial CP543.5002 (European Union) participants have the opportunity to continue in the trial for a maximum of 108 weeks.
Subjects receiving any active dose of deuruxolitinib in the qualifying trials were initially assigned to receive either 8 mg BID or 12 mg BID in the OLE trial. Subjects receiving placebo in the qualifying trial were assigned to either deuruxolitinib 8 mg BID or 12 mg BID. Subjects were allowed to switch doses during the OLE after initial treatment assignment at the discretion of the Principal Investigator.

For `[2H]C1([2H])C([C@@H](CC#N)n2cc(-c3ncnc4[nH]ccc34)cn2)C([2H])([2H])C([2H])([2H])C1([2H])[2H]` [CTP-543, (R)-3-(4-(7H-pyrrolo[2,3-d]pyrimidin-4-yl)-1H-pyrazol-1-yl)-3-(cyclopentyl-2,2,3,3,4,4,5,5-d8) propanenitrile], the “SPRO score, LS mean change from baseline” value ([1]; Week 12, 8 mg BID) was −1.6, the “SPRO score, LS mean change from baseline” value ([1]; Week 12, 12 mg BID) was −1.7 and the “SPRO score, LS mean change from baseline” value ([1]; Week 16, 8 mg BID) was −1.6. For the same compound, the “SPRO score, LS mean change from baseline” value ([1]; Week 16, 12 mg BID) was −1.7, the “SPRO score, LS mean change from baseline” value ([1]; Week 20, 8 mg BID) was −1.5 and the “SPRO score, LS mean change from baseline” value ([1]; Week 20, 12 mg BID) was −1.8. For the same compound, the “SPRO score, LS mean change from baseline” value ([1]; Week 24, 8 mg BID) was −1.6, the “SPRO Responders: No” value ([1]; Week 24, 8 mg BID (N = 249)) was 122 (53.5) n (%) and the “SPRO Responders: Yes ('Very satisfied' or 'Satisfied')” value ([1]; Week 24, 8 mg BID (N = 249)) was 106 (46.5) n (%). For the same compound, the “SPRO Responses: 1 = Very Satisfied” value ([1]; Week 24, 8 mg BID (N = 249)) was 40 (17.5) n (%), the “SPRO Responses: 2 = Satisfied” value ([1]; Week 24, 8 mg BID (N = 249)) was 66 (38.9) n (%) and the “SPRO Responses: 3 = Neither Satisfied Nor Dissatisfied” value ([1]; Week 24, 8 mg BID (N = 249)) was 34 (14.9) n (%). For the same compound, the “SPRO Responses: 4 = Dissatisfied” value ([1]; Week 24, 8 mg BID (N = 249)) was 34 (14.9) n (%), the “SPRO Responses: 5 = Very Dissatisfied” value ([1]; Week 24, 8 mg BID (N = 249)) was 54 (23.7) n (%) and the “SPRO responders, treatment difference: Common Risk Difference (Mantel-Haenszel)” value ([1]; Week 24, 8 mg BID compared to Placebo) was 0.45. For the same compound, the “percentage of subjects with a ≥2 point change from baseline in SPRO” value ([1]; Week 24, 8 mg BID) was 52.6%, the “proportion of SPRO responders (very satisfied or satisfied)” value ([1]; Week 24, 8 mg BID) was 46.5% and the “SPRO score, LS mean change from baseline” value ([1]; Week 24, 12 mg BID) was −1.8. The “SPRO Responders: No” value ([1]; Week 24, 12 mg BID (N = 127)) was 58 (48.3) n (%), the “SPRO Responders: Yes ('Very satisfied' or 'Satisfied')” value ([1]; Week 24, 12 mg BID (N = 127)) was 62 (51.7) n (%) and the “SPRO Responses: 1 = Very Satisfied” value ([1]; Week 24, 12 mg BID (N = 127)) was 24 (20.0) n (%). For the same compound, the “SPRO Responses: 2 = Satisfied” value ([1]; Week 24, 12 mg BID (N = 127)) was 38 (31.7) n (%), the “SPRO Responses: 3 = Neither Satisfied Nor Dissatisfied” value ([1]; Week 24, 12 mg BID (N = 127)) was 23 (19.2) n (%) and the “SPRO Responses: 4 = Dissatisfied” value ([1]; Week 24, 12 mg BID (N = 127)) was 18 (15.0) n (%). For the same compound, the “SPRO Responses: 5 = Very Dissatisfied” value ([1]; Week 24, 12 mg BID (N = 127)) was 17 (14.2) n (%), the “SPRO responders, treatment difference: Common Risk Difference (Mantel-Haenszel)” value ([1]; Week 24, 12 mg BID compared to Placebo) was 0.49 and the “percentage of subjects with a ≥2 point change from baseline in SPRO” value ([1]; Week 24, 12 mg BID) was 61.7%. For the same compound, the “proportion of SPRO responders (very satisfied or satisfied)” value ([1]; Week 24, 12 mg BID) was 51.7, the “percentage of SPRO responders” value ([1]; week 12, 8 mg BID) was 43.2% and the “percentage of subjects with a ≥2 point change from baseline in SPRO” value ([1]; week 12, 8 mg BID) was 50.4%. The “percentage of SPRO responders” value ([1]; week 12, 12 mg BID) was 41.0%, the “percentage of subjects with a ≥2 point change from baseline in SPRO” value ([1]; week 12, 12 mg BID) was 59.0% and the “percentage of SPRO responders” value ([1]; week 16, 8 mg BID) was 41.0%. For the same compound, the “percentage of subjects with a ≥2 point change from baseline in SPRO” value ([1]; week 16, 8 mg BID) was 52.6%, the “percentage of SPRO responders” value ([1]; week 16, 12 mg BID) was 45.1% and the “percentage of subjects with a ≥2 point change from baseline in SPRO” value ([1]; week 16, 12 mg BID) was 57.4%. The “percentage of SPRO responders” value ([1]; week 20, 8 mg BID) was 40.1%, the “percentage of subjects with a ≥2 point change from baseline in SPRO” value ([1]; week 20, 8 mg BID) was 50.4% and the “percentage of SPRO responders” value ([1]; week 20, 12 mg BID) was 52.5%. For the same compound, the “percentage of subjects with a ≥2 point change from baseline in SPRO” value ([1]; week 20, 12 mg BID) was 63.6% and the “most common adverse events” value [2] was “COVID-19, acne, nasopharyngitis, headache, asymptomatic COVID-19, creatinine phosphokinase increase, and upper respiratory tract infection”.
